In patent US9642831B2, “Substituted chromanes and method of use” (AbbVie S.á.r.l., priority 2014, dated 2017):
pEC50: −log10 of the molar value.

Molecular target: F508delCFTR (Homo sapiens, UniProt P13569, DEL508-508)
Test: Cell Surface Expression-Horse Radish Peroxidase (CSE-HRP) assay
Assay type: cell-based
Set-up: expressed in transfected cells; host or cells: CFBE41o- human lung derived epithelial cell line, doxycycline-inducible
Conditions: CFBE4lo-F508delCFTR-HRP cells; for pEC50: 18-24 hours at 33° C., 8-point curve, highest concentration 20 μM, luminescence readout; for Emax: maximum % activity at any tested concentration, normalized to on-plate positive control (3 μM Example 1)
Summary of the method: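 Following 18-24 h compound exposure at 33° C. Expression was doxycycline-induced beforehand. % activity versus DMSO and a 3 μM corrector control gave maximum activity and EC50 from a variable-Hill sigmoidal fit.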

F508delCFTR, sequence (P13569 with tags, fused parts or gaps DEL508-508): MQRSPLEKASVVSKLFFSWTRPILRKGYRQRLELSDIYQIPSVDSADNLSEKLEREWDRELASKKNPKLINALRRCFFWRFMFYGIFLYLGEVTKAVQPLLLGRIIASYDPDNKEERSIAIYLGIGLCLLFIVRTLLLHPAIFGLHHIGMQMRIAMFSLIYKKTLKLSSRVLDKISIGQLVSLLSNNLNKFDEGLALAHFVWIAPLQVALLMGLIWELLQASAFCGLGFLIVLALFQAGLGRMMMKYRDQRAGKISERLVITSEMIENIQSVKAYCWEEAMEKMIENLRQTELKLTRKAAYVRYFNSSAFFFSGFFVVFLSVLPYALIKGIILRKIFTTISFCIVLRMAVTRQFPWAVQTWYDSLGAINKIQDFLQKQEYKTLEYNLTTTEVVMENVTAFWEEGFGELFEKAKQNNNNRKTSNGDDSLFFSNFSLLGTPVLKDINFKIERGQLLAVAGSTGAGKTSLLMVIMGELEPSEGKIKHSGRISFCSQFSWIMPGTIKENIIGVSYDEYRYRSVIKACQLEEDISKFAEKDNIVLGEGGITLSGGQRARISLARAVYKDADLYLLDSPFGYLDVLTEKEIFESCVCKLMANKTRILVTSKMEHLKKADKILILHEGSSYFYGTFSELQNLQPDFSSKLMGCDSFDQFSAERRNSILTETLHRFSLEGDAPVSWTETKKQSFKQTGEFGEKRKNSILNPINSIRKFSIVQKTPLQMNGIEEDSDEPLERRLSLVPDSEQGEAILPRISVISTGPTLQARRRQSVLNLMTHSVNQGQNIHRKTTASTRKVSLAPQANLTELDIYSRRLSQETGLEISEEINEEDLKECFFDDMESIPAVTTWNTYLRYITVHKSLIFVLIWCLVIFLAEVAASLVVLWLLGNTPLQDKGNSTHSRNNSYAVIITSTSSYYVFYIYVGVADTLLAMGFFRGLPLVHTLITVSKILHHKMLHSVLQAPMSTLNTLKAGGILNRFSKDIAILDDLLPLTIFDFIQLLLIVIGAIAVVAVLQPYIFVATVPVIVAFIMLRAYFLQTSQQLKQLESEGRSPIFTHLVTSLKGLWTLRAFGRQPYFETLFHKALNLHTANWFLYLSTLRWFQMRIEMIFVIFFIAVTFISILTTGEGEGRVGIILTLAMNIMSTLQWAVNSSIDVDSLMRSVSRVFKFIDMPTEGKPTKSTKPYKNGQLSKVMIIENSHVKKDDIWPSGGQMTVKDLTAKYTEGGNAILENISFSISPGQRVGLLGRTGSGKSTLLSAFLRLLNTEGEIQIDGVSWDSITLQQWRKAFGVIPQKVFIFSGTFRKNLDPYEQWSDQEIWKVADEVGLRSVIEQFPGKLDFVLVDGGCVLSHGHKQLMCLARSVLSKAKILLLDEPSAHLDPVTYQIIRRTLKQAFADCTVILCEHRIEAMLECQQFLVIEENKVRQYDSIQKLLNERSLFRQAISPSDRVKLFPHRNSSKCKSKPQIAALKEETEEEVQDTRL

| pEC50 | Emax [%] | Structure (SMILES) |
| --- | --- | --- |
| 5.88 | 89 | COC(=O)c1ccc2c(c1)OCCC2NC(=O)C1(c2ccc3c(c2)OC(F)(F)O3)CC1 (stereo not drawn) [Example 45, methyl 4-({[1-(2,2-difluoro-1,3-benzodioxol-5-yl)cyclopropyl]carbonyl}amino)-3,4-dihydro-2H-chromene-7-carboxylate] |
| 5.29 | 27 | COC(=O)c1ccc2c(c1)[C@H](NC(=O)C1(c3ccc4c(c3)OC(F)(F)O4)CC1)C[C@H](C1CCCC(OC)C1)O2 (stereo partly drawn) [Example 46, methyl (2R,4R)-4-({[1-(2,2-difluoro-1,3-benzodioxol-5-yl)cyclopropyl]carbonyl}amino)-2-(3-methoxycyclohexyl)-3,4-dihydro-2H-chromene-6-carboxylate] |
| 5.40 | 43 | COC(=O)c1ccc2c(c1)[C@H](NC(=O)C1(c3ccc4c(c3)OC(F)(F)O4)CC1)C[C@H](c1cccc(OC)c1)O2 [Example 47, methyl (2R,4R)-4-({[1-(2,2-difluoro-1,3-benzodioxol-5-yl)cyclopropyl]carbonyl}amino)-2-(3-methoxyphenyl)-3,4-dihydro-2H-chromene-6-carboxylate] |
| 6.00 | 104 | Cc1ccc2c(c1)O[C@@H](c1cccc(C(=O)NC[C@@H](O)CO)c1)C[C@H]2NC(=O)C1(c2ccc3c(c2)OC(F)(F)O3)CC1 [Example 48, 3-[(2R,4R)-4-({[1-(2,2-difluoro-1,3-benzodioxol-5-yl)cyclopropyl]carbonyl}amino)-7-methyl-3,4-dihydro-2H-chromen-2-yl]-N-[(2R)-2,3-dihydroxypropyl]benzamide] |
| 6.01 | 105 | Cc1ccc2c(c1)O[C@@H](c1cccc(C(=O)N3CC[C@@H](O)C3)c1)C[C@H]2NC(=O)C1(c2ccc3c(c2)OC(F)(F)O3)CC1 [Example 49, 1-(2,2-difluoro-1,3-benzodioxol-5-yl)-N-[(2R,4R)-2-(3-{[(3R)-3-hydroxypyrrolidin-1-yl]carbonyl}phenyl)-7-methyl-3,4-dihydro-2H-chromen-4-yl]cyclopropanecarboxamide] |
| 6.07 | 101 | Cc1ccc2c(c1)O[C@@H](c1cccc(C(=O)NCC(O)C(F)(F)F)c1)C[C@H]2NC(=O)C1(c2ccc3c(c2)OC(F)(F)O3)CC1 (stereo partly drawn) [Example 50, 3-[(2R,4R)-4-({[1-(2,2-difluoro-1,3-benzodioxol-5-yl)cyclopropyl]carbonyl}amino)-7-methyl-3,4-dihydro-2H-chromen-2-yl]-N-(3,3,3-trifluoro-2-hydroxypropyl)benzamide] |
| 6.01 | 83 | Cc1ccc2c(c1)O[C@@H](c1cccc(C(=O)NCC(C)(C)O)c1)C[C@H]2NC(=O)C1(c2ccc3c(c2)OC(F)(F)O3)CC1 [Example 51, 3-[(2R,4R)-4-({[1-(2,2-difluoro-1,3-benzodioxol-5-yl)cyclopropyl]carbonyl}amino)-7-methyl-3,4-dihydro-2H-chromen-2-yl]-N-(2-hydroxy-2-methylpropyl)benzamide] |
| 6.00 | 93 | Cc1ccc2c(c1)O[C@@H](c1cccc(C(=O)N3CCCC(CO)C3)c1)C[C@H]2NC(=O)C1(c2ccc3c(c2)OC(F)(F)O3)CC1 (stereo partly drawn) [Example 52, 1-(2,2-difluoro-1,3-benzodioxol-5-yl)-N-[(2R,4R)-2-(3-{[3-(hydroxymethyl)piperidin-1-yl]carbonyl}phenyl)-7-methyl-3,4-dihydro-2H-chromen-4-yl]cyclopropanecarboxamide] |
| 5.75 | 90 | Cc1ccc2c(c1)O[C@@H](c1cccc(C(=O)N3CCOC(CO)C3)c1)C[C@H]2NC(=O)C1(c2ccc3c(c2)OC(F)(F)O3)CC1 (stereo partly drawn) [Example 53, 1-(2,2-difluoro-1,3-benzodioxol-5-yl)-N-[(2R,4R)-2-(3-{[2-(hydroxymethyl)morpholin-4-yl]carbonyl}phenyl)-7-methyl-3,4-dihydro-2H-chromen-4-yl]cyclopropanecarboxamide] |
| 6.07 | 92 | Cc1ccc2c(c1)O[C@@H](c1cccc(C(=O)NCC3(O)CCC3)c1)C[C@H]2NC(=O)C1(c2ccc3c(c2)OC(F)(F)O3)CC1 [Example 54, 3-[(2R,4R)-4-({[1-(2,2-difluoro-1,3-benzodioxol-5-yl)cyclopropyl]carbonyl}amino)-7-methyl-3,4-dihydro-2H-chromen-2-yl]-N-[(1-hydroxycyclobutyl)methyl]benzamide] |
| 5.68 | 101 | Cc1ccc2c(c1)O[C@@H](c1cccc(C(=O)N3CC(C)(CO)C3)c1)C[C@H]2NC(=O)C1(c2ccc3c(c2)OC(F)(F)O3)CC1 [Example 55, 1-(2,2-difluoro-1,3-benzodioxol-5-yl)-N-[(2R,4R)-2-(3-{[3-(hydroxymethyl)-3-methylazetidin-1-yl]carbonyl}phenyl)-7-methyl-3,4-dihydro-2H-chromen-4-yl]cyclopropanecarboxamide] |
| 5.51 | 124 | O=C(NC1CCOc2cc(Br)ccc21)C1(c2ccc3c(c2)OC(F)(F)O3)CC1 (stereo not drawn) [Example 56, N-(7-bromo-3,4-dihydro-2H-chromen-4-yl)-1-(2,2-difluoro-1,3-benzodioxol-5-yl)cyclopropanecarboxamide] |
| 5.60 | 101 | O=C(NC1C[C@H](c2cccc(CO)c2)Oc2ccccc21)C1(c2ccc3c(c2)OC(F)(F)O3)CC1 (stereo partly drawn) [Example 58, 1-(2,2-difluoro-1,3-benzodioxol-5-yl)-N-{(2R)-2-[3-(hydroxymethyl)phenyl]-3,4-dihydro-2H-chromen-4-yl}cyclopropanecarboxamide] |
| 5.44 | 101 | COc1ccc2c(c1)OCCC2NC(=O)C1(c2ccc3c(c2)OC(F)(F)O3)CC1 (stereo not drawn) [Example 59, 1-(2,2-difluoro-1,3-benzodioxol-5-yl)-N-(7-methoxy-3,4-dihydro-2H-chromen-4-yl)cyclopropanecarboxamide] |
| 6.15 | 131 | COc1ccc2c(c1)OC(c1ccccc1)CC2NC(=O)C1(c2ccc3c(c2)OC(F)(F)O3)CC1 (stereo not drawn) [Example 60, 1-(2,2-difluoro-1,3-benzodioxol-5-yl)-N-(7-methoxy-2-phenyl-3,4-dihydro-2H-chromen-4-yl)cyclopropanecarboxamide] |
| 5.69 | 132 | COc1ccc2c(c1)OC(c1ccc(Cl)c(Cl)c1)CC2NC(=O)C1(c2ccc3c(c2)OC(F)(F)O3)CC1 (stereo not drawn) [Example 61, N-[2-(3,4-dichlorophenyl)-7-methoxy-3,4-dihydro-2H-chromen-4-yl]-1-(2,2-difluoro-1,3-benzodioxol-5-yl)cyclopropanecarboxamide] |
| 6.16 | 135 | COc1ccc2c(c1)OC(c1ccc(OC)c(OC)c1)CC2NC(=O)C1(c2ccc3c(c2)OC(F)(F)O3)CC1 (stereo not drawn) [Example 62, 1-(2,2-difluoro-1,3-benzodioxol-5-yl)-N-[2-(3,4-dimethoxyphenyl)-7-methoxy-3,4-dihydro-2H-chromen-4-yl]cyclopropanecarboxamide] |
| 6.20 | 106 | COc1ccc2c(c1)OC(c1ccc(Cl)cc1)CC2NC(=O)C1(c2ccc3c(c2)OC(F)(F)O3)CC1 (stereo not drawn) [Example 63, N-[2-(4-chlorophenyl)-7-methoxy-3,4-dihydro-2H-chromen-4-yl]-1-(2,2-difluoro-1,3-benzodioxol-5-yl)cyclopropanecarboxamide] |
